The values that follow come from PubChem BioAssay (NCI).

Where “and” joins values, the source holds several entries; their conditions need not be identical. Equal values may be shown once.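 Protocol summary: plate cells (96-well), add compound at 5 concentrations, incubate 48 h, interpolate endpoints linearly. GI50 = concentration required for 50% inhibition of growth. TGI denotes the concentration required for complete inhibition of growth.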

Some test systems named below: COLO 205 colon; MDA-MB-435; UO-31 renal; OVCAR-3 ovarian; KM12 colon; HCT-15 colon.
What all share (test): NCI tumour cell line growth inhibition, 48 h

`Brc1ccc(Nc2nc3ccccc3nc2Nc2ccc(Br)cc2)cc1`: the GI50 with COLO 205 colon was 1.84 µM; in the test on MDA-MB-435, 1.51 µM; in the test with UO-31 renal, 1.83 µM; in the test on OVCAR-3 ovarian, 0.401 µM; in the test on KM12 colon, 1.4 µM; with HCT-15 colon it was 0.507 µM. In addition, the TGI came out at 3.35 µM in the test on COLO 205 colon; 4.9 µM in the test on MDA-MB-435; 6.3 µM in the test with UO-31 renal; 1.54 µM with OVCAR-3 ovarian; 8.96 µM in the test with KM12 colon; 3.21 µM with HCT-15 colon.
In the case of `C=C1C(=O)OC2CC1C(OC(C)=O)C/C(C)=C/CC/C(C)=C\CCC2(C)O` (configuration not stated), the TGI is 14.4 µM and > 100 µM in the test with COLO 205 colon; 18.6 µM in the test with MDA-MB-435; 18.3 µM and 12.3 µM with UO-31 renal; 21.1 µM and 51.2 µM in the test with OVCAR-3 ovarian; 32.3 µM and 19.4 µM in the test with KM12 colon; 13.5 µM and 3.63 µM with HCT-15 colon. The GI50 in the test with KM12 colon is 11.6 µM and 5.11 µM.
For the molecule `O=c1[nH]c(F)nc2c1ncn2C1OC(CO)C(O)C1O` (configuration not stated), the GI50 in the test with COLO 205 colon, in the test with MDA-MB-435, in the test on UO-31 renal, in the test with OVCAR-3 ovarian, in the test with KM12 colon and in the test on HCT-15 colon was > 100 µM throughout. For the same molecule, the TGI with COLO 205 colon, with MDA-MB-435, with UO-31 renal, in the test on OVCAR-3 ovarian, in the test with KM12 colon and in the test on HCT-15 colon was > 100 µM in each case.
With `CC(Cc1cccc2c1Nc1ccccc1S2)N(C)CCO` (configuration not stated), the TGI in the test with COLO 205 colon, in the test with MDA-MB-435, in the test on UO-31 renal, in the test on OVCAR-3 ovarian, in the test on KM12 colon and in the test with HCT-15 colon was > 100 µM in each case.
For the molecule `Cn1c(=O)c2[nH]c(CCCc3ccc([N+](=O)[O-])cc3)nc2n(C)c1=O`, the TGI in the test with COLO 205 colon, in the test on MDA-MB-435, in the test with UO-31 renal, in the test with OVCAR-3 ovarian, in the test on KM12 colon and in the test with HCT-15 colon was > 100 µM in each case.
For the molecule `NCCCNc1nc2ccc(Cl)cc2c2c(=O)c3cc(F)ccc3sc12`, the GI50 was 2.71 µM in the test on COLO 205 colon; 1.93 µM with MDA-MB-435; 3.35 µM in the test with UO-31 renal; 1.92 µM in the test on OVCAR-3 ovarian; 1.77 µM in the test with KM12 colon; 1.71 µM in the test with HCT-15 colon. Besides, the TGI in the test on COLO 205 colon turned out to be 8.91 µM; in the test with MDA-MB-435, 4.2 µM; in the test with UO-31 renal, 16.1 µM; in the test with OVCAR-3 ovarian, 4.03 µM; with KM12 colon, 3.43 µM; in the test with HCT-15 colon, 3.48 µM.
Regarding `COC(=O)[C@@H](C)C[C@H](Cc1ccccc1)NC(=O)c1csc([C@@H](C[C@H](C(C)C)N(C)C(=O)C2(NC(=O)[C@H]3CCCCN3C)CCC2)OC(C)=O)n1`, the GI50 was 0.00335 µM and 0.0025 µM in the test with COLO 205 colon; 0.000325 µM and < 0.0025 µM in the test on MDA-MB-435; 0.734 µM and 0.157 µM in the test on UO-31 renal; 0.000487 µM and 0.0025 µM with OVCAR-3 ovarian; 0.00319 µM and 0.00522 µM in the test with KM12 colon; 0.0944 µM and 0.0665 µM in the test on HCT-15 colon. Moreover, the TGI in the test with COLO 205 colon was 0.12 µM and 0.0182 µM; in the test with MDA-MB-435, 0.00179 µM and < 0.0025 µM; in the test with UO-31 renal it was > 25 µM; with OVCAR-3 ovarian, 0.0101 µM and 0.00672 µM; in the test with KM12 colon it was > 25 µM; in the test with HCT-15 colon, > 25 µM.
`O=C1NC(=O)C(c2ccccc2)=C1Nc1ccccc1`: the GI50 in the test on COLO 205 colon, in the test on MDA-MB-435, in the test with UO-31 renal, in the test with OVCAR-3 ovarian, in the test on KM12 colon and in the test on HCT-15 colon was > 25 µM each time. In addition, the TGI with COLO 205 colon, in the test with MDA-MB-435, in the test with UO-31 renal, in the test on OVCAR-3 ovarian, in the test on KM12 colon and in the test on HCT-15 colon was > 25 µM throughout.
Consider `COc1cc2c(cc1OCCCCn1c(-c3cccs3)nc3ccccc31)N=C[C@@H]1CCCN1C2=O`, for which the GI50 with COLO 205 colon is 1.07 µM; in the test on MDA-MB-435 it was 1.39 µM; in the test with UO-31 renal it was 1.23 µM; with OVCAR-3 ovarian, 1.72 µM; in the test on KM12 colon, 1.92 µM; in the test with HCT-15 colon, 3.19 µM. The TGI amounted to 2.58 µM with COLO 205 colon; 3.75 µM in the test with MDA-MB-435; 5.34 µM in the test on UO-31 renal; 4.29 µM in the test with OVCAR-3 ovarian; 5.38 µM in the test on KM12 colon; 10.5 µM in the test on HCT-15 colon.
Turning to `C=C(CN1CCN(c2ccccc2C(F)(F)F)CC1)c1ccc(C(=O)Nc2ccccc2N)cc1`, the GI50 is 11.5 µM in the test with COLO 205 colon; 2.72 µM with MDA-MB-435; 1 µM in the test on UO-31 renal; 5.92 µM in the test on OVCAR-3 ovarian; 2.04 µM in the test on KM12 colon; 4.88 µM in the test with HCT-15 colon. Moreover, the TGI with COLO 205 colon was 45.9 µM; in the test on MDA-MB-435, > 22.6 µM; in the test on UO-31 renal, > 60.3 µM; with OVCAR-3 ovarian, 38.3 µM; in the test on KM12 colon, 11.7 µM; in the test with HCT-15 colon it was > 100 µM.
In the case of `O=C1c2cccnc2C(=O)c2c1c(C(=O)OCCc1ccccn1)c1ccccn21`, the GI50 is 1.45 µM with COLO 205 colon; 0.0524 µM in the test with MDA-MB-435; < 0.0117 µM with UO-31 renal; 0.0305 µM with OVCAR-3 ovarian; 0.0946 µM in the test with KM12 colon; 0.0145 µM with HCT-15 colon. Further, the TGI was 3.16 µM in the test on COLO 205 colon; 3.72 µM in the test with MDA-MB-435; 0.387 µM with UO-31 renal; 1.45 µM in the test with OVCAR-3 ovarian; > 22.4 µM in the test with KM12 colon; 1.46 µM in the test on HCT-15 colon.
On to `COc1ccccc1NC(=O)C(=O)Cc1cnc2ccccc2n1`, for which the TGI with COLO 205 colon, in the test on MDA-MB-435, in the test with UO-31 renal, in the test with OVCAR-3 ovarian, with KM12 colon and in the test with HCT-15 colon was > 100 µM each time.
Consider `CCOC(=O)c1cn(CC)c2ccc3ccsc3c2c1=O`, for which the TGI with COLO 205 colon, in the test on MDA-MB-435, with UO-31 renal, with OVCAR-3 ovarian, with KM12 colon and in the test on HCT-15 colon was > 100 µM each time.
